Data published in patent US11459340B2, “Tri-substituted heteroaryl derivatives as Src homology-2 phosphatase inhibitors” (Nikang Therapeutics, Inc., priority 2018, dated 2022).

Target: SHP2 (Homo sapiens (Human), UniProt Q06124)
Assay: SHP2 Allosteric Inhibition Assay (DiFMUP substrate, bisphos-IRS1 peptide activation)
Type: biochemical
Conditions: 0.5 μM bisphos-IRS1 peptide, 100 uM DiFMUP, room temperature
Experimental: At the basal state, SHP2 is auto-inhibited and access of substrates to the catalytic site is blocked by the […] interactions between the SH2 domains and the PTP domain. When bis-tyrosyl-phosphorylated peptides bind to SH2 domain of SHP2, the PTP domain becomes available for substrate recognition and reaction catalysis and SHP2 is allosterically activated. SHP2 catalytic activity can be measured using a fluorogenic artificial substrate DiFMUP.
The phosphatase reactions were carried out at room temperature in 384-well black polystyrene plates (Greiner Bio-One, Cat #784076) using assay buffers containing 60 mM HEPES, pH 7.2, 75 mM NaCl, 75 mM KCl, 1 mM EDTA, 0.05% P-20, and 5 mM DTT.
0.33 nM of […] was co-incubated with of 0.5 μM of bisphos-IRS 1 peptide (sequence: H2N-LN(pY)IDLDLV(dPEG8)LST(pY)ASINFQK-amide) and various concentrations of compounds for 30-60 min at room temperature. Then the reaction was initiated by addition of the surrogate substrate DiFMUP (Invitrogen, Cat #D6567, 100 uM final).
The real-time conversion of DiFMUP to DiFMU (6,8-difluoro-7-hydroxyl-4-methyl-coumarin) was measured every 5 min for 30 min using a microplate reader (CLARIOstar, BMG Labtech) with excitation and emission wavelengths of 340 nm and 450 nm, respectively. Initial reaction rates were determined by linear fitting of the data and the inhibitor dose response curves were analyzed using normalized IC50 regression curve fitting with control based normalization.

| IC50 | Structure (SMILES) |
| --- | --- |
| 8 nM | CO[C@H]1C[C@H]2COc3c(Sc4cnc(N5CCC6(CC5)CO[C@@H](C)[C@H]6N)c(CO)n4)ccnc3N2C1 [Compound 16, (3-((3S,4S)-4-amino-3-methyl-2-oxa-8-azaspiro[4.5]decan-8-yl)-6-(((6aS,8S)-8-methoxy-6a,7,8,9-tetrahydro-6H-pyrido[3,2-b]pyrrolo[1,2-d][1,4]oxazin-4-yl)thio)pyrazin-2-yl)methanol] |
| 5 nM | C[C@@H]1OCC2(CCN(c3ncc(Sc4ccnc5c4OC[C@@H]4C[C@@H](F)CN54)nc3CO)CC2)[C@@H]1N [Compound 15, (3-((3S,4S)-4-amino-3-methyl-2-oxa-8-azaspiro[4.5]decan-8-yl)-6-(((6aS,8R)-8-fluoro-6a,7,8,9-tetrahydro-6H-pyrido[3,2-b]pyrrolo[1,2-d] [1,4]oxazin-4-yl)thio)pyrazin-2-yl)methanol] |
| 6 nM | C[C@@H]1OCC2(CCN(c3ncc(Sc4ccnc5c4OC[C@@H]4C[C@H](O)CN54)nc3CO)CC2)[C@@H]1N [Compound 18, (6aS,8S)-4-((5-((3S,4S)-4-amino-3-methyl-2-oxa-8-azaspiro[4.5]decan-8-yl)-6-(hydroxymethyl)pyrazin-2-yl)thio)-6a,7,8,9-tetrahydro-6H-pyrido[3,2-b]pyrrolo[1,2-d][1,4] oxazin-8-ol] |
| 8 nM | C[C@@H]1OCC2(CCN(c3ncc(Sc4ccnc5c4OC[C@@H]4C[C@@H](O)CN54)nc3CO)CC2)[C@@H]1N [Compound 19, (6aS,8R)-4-((5-((3S,4S)-4-amino-3-methyl-2-oxa-8-azaspiro[4.5]decan-8-yl)-6-(hydroxymethyl)pyrazin-2-yl)thio)-6a,7,8,9-tetrahydro-6H-pyrido[3,2-b]pyrrolo[1,2-d][1,4]oxazin-8-ol] |
| 12 nM | C[C@@H]1OCC2(CCN(c3ncc(Sc4ccnc5c4OC[C@@H]4C[C@H](O[C@@H]6CCOC6)CN54)nc3CO)CC2)[C@@H]1N [Compound 28, (3-((3S,4S)-4-amino-3-methyl-2-oxa-8-azaspiro[4.5]decan-8-yl)-6-(((6aS,8S)-8-(((R)-tetrahydrofuran-3-yl)oxy)-6a,7,8,9-tetrahydro-6H-pyrido[3,2-b]pyrrolo[1,2-d][1,4]oxazin-4-yl)thio)pyrazin-2-yl)methanol] |
| 13 nM | C[C@@H]1OCC2(CCN(c3ncc(Sc4ccnc5c4OC[C@@H]4C[C@H](F)CN54)nc3CO)CC2)[C@@H]1N [Compound 14, (3-((3S,4S)-4-amino-3-methyl-2-oxa-8-azaspiro[4.5]decan-8-yl)-6-(((6aS,8S)-8-fluoro-6a,7,8,9-tetrahydro-6H-pyrido[3,2-b]pyrrolo[1,2-d] [1,4]oxazin-4-yl)thio)pyrazin-2-yl)methanol] |
